In article PMC9822051, “A Study on the Chemistry and Biological Activity of 26-Sulfur Analogs of Diosgenin: Synthesis of 26-Thiodiosgenin S-Mono- and Dioxides, and Their Alkyl Derivatives” (Molecules, 2022) one finds IC50 and melting point data, which are given here for 1 molecule.

Data set [1] concerns chronic myelogenous leukemia K562. The data set is described as follows: Cytotoxicity, resazurin, 72 h. In kind it is cell-based, human. To be noted: K562, 72 h. The procedure: (§1) The studied compounds were evaluated for cytotoxicity in human cancer cell lines (cervical carcinoma HeLa, chronic myelogenous leukemia K562 and breast adenocarcinoma MCF7) and normal human retina cells RPE-1 (ca. 5.0 × 10^4 cells·mL^−1) after 72 h of treatment using resazurin (Merck/MilliporeSigma, St. Louis, MO, USA) as described earlier for Calcein AM dye.

Data set [2] has as its system normal human retina cells RPE-1. Kind of data set: Cytotoxicity, resazurin, 72 h. In kind it is cell-based. To be noted: RPE-1 normal cells. The procedure: as §1
Another data set deals with cervical carcinoma HeLa. The data set is described as follows: Cytotoxicity, resazurin, 72 h. In kind it is cell-based, human. As for the experimental part:
as §1

Data set [3] relates to breast adenocarcinoma MCF7. Kind of data set: Cytotoxicity, resazurin, 72 h. In kind it is cell-based, human. To be noted: MCF7, 72 h. As for the experimental part:
as §1
(In general: The colour change of resazurin is a common sign of viable cells or microbes.)

By IC50 is commonly meant the concentration that inhibits the measured activity by half. By melting point is commonly meant the temperature, or range, at which the solid turns liquid.

`CC1CCC2(OC3CC4C5CC=C6CC(O)CCC6(C)C5CCC4(C)C3C2C)[S+]([O-])C1` (centres unmarked) [Sulfoxide 7]: the melting point fell in the range of 165 to 166 °C. This molecule also displayed an IC50 in data set [1] of over 50 µM. In addition, the IC50 in data set [2] is over 50 µM. In the data set on cervical carcinoma HeLa, this molecule showed an IC50 of 34.3 ± 3 µM. Besides, in data set [3], the 50% inhibitory concentration (IC50) was over 50 µM.
